Data taken from patent publication US6919306B2, “Method of skin care” (Yaizu Suisankagaku Industry Co. Ltd., priority 1999, dated 2005).

Tested on: hyaluronic acid in skin
Assay: Influence of orally administered NAG on hyaluronic acid content in skin
Type: in vivo, hairless rats
Conditions: for Hyaluronic acid content, Epidermis / Hyaluronic acid content, Corium: hairless rats; for Hyaluronic acid content, Epidermis: 4 weeks (0 mg/kg/day: 31.25); for Hyaluronic acid content, Corium: 4 weeks (0 mg/kg/day: 462.7)
Experimental: Using hairless rats, influence of orally administered NAG on the content of hyaluronic acid in skin was tested. The NAG prepared in PREPARATION EXAMPLE 1 was mixed to a basic feed (Solid feed MF, manufactured by Oriental Kobo Kogyo Kabushiki Kaisha), and rats were permitted to freely ingest the mixture so that the substantial administered amount of NAG would be 0, 20 or 200 mg/kg of body weight/day. Administration was continued for 4 weeks from 9 week instar to 13 week instar, and the hyaluronic acid amounts in skin layer were measured separately for epidermis and corium. In this connection, the measurement of the hyaluronic acid was carried out in accordance with a hyaluronic acid measurement kit (manufactured by Chugai Shindanyaku Co.).

For `CC(=O)N[C@H]1C(O)O[C@H](CO)[C@@H](O)[C@@H]1O` (some centres unmarked) [NAG, N-acetylglucosamine], the “hyaluronic acid contents in epidermis and corium versus administered amount” value (hairless rats, 0, 20 or 200 mg/kg/day, 4 weeks) was “tend to increase together in proportion to the administered amounts”, the “Hyaluronic acid content, Epidermis” value (NAG 20 mg/kg/day in feed) was 33.77 μg/g dried tissue and the “Hyaluronic acid content, Corium” value (NAG 20 mg/kg/day in feed) was 506.6 μg/g dried tissue. For the same compound, the “Hyaluronic acid content, Epidermis” value (NAG 200 mg/kg/day in feed) was 35.09 μg/g dried tissue and the “Hyaluronic acid content, Corium” value (NAG 200 mg/kg/day in feed) was 549.8 μg/g dried tissue.
